Measured values published in ChEMBL document CHEMBL3621090, “Discovery of a novel Kv7 channel opener as a treatment for epilepsy” (Bioorg Med Chem Lett, 2015).

How the values were obtained:
MDCK = test: Efflux ratio of permeability from basolateral to apical over apical to basolateral side in MDCK cells transfected with MDR1; format: ADME, cell-based, Canis lupus familiaris; conditions: dog
[1] = target: Voltage-gated potassium channel, IKs; KCNQ1(Kv7.1)/KCNE1(MinK) (Homo sapiens, UniProt P15382+P51787); test: Activation of human Kv7.1/KCNE1 expressed in CHOK1 cells; format: cell-based, CHO-K1
[2] = Toxicity in human THLE cells assessed as ATP depletion; format: cell-based
[3] = Ratio of free drug level in plasma to brain in Sprague-Dawley rat at 1 mg/kg, po administration at 60 mins; format: ADME, organism-based; conditions: in vivo, 1 h
Rattus norvegicus [4] = test: Anticonvulsant activity in Sprague-Dawley rat assessed as protection against maximal electroshock-induced convulsion at 1 mg/kg, sc administered 30 mins prior to application of shock via corneal electrodes relative to control; format: functional
Plasma [5] = test: Unbound plasma concentration in Sprague-Dawley rat at 10 mg/kg, po administered at 60 mins by LC-MS/MS analysis; format: ADME, organism-based; conditions: in vivo, 1 h
Plasma [6] = test: Unbound plasma concentration in Sprague-Dawley rat at 3 mg/kg, po administered at 60 mins by LC-MS/MS analysis; format: ADME, organism-based; conditions: in vivo, 1 h
Rattus norvegicus [7] = test: Anticonvulsant activity in Sprague-Dawley rat assessed as protection against maximal electroshock-induced convulsion at 3 mg/kg, sc administered 30 mins prior to application of shock via corneal electrodes relative to control; format: functional

Sequence of Voltage-gated potassium channel, IKs; KCNQ1(Kv7.1)/KCNE1(MinK) (P51787 whole entry): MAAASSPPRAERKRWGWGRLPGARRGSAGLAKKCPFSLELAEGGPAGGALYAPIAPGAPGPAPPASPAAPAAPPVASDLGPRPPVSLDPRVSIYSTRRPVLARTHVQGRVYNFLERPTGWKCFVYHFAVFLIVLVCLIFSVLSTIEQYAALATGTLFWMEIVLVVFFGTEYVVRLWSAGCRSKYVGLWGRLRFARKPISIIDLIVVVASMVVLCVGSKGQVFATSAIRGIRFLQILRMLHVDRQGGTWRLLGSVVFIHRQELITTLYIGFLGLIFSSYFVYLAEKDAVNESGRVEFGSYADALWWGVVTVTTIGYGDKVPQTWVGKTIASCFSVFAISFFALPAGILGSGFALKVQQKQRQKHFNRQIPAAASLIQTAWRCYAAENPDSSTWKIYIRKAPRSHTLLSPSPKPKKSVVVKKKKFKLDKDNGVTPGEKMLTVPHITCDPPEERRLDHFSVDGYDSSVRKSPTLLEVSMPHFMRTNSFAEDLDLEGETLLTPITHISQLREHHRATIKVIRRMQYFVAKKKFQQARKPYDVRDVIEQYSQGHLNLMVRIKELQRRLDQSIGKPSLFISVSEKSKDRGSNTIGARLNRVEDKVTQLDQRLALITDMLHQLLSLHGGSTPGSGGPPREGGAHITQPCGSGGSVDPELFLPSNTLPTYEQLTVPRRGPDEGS

Ratio (MDCK): 1.25
EC50 [1]: > 100 µM
Ratio [3]: 0.42
Cp(f) (Plasma [5]): 225 nM
Cp(f) (Plasma [6]): 109 nM
SMILES: COc1nc(N2CCC(OC)CC2)nc(OC)c1NC(=O)CC(C)(C)C
IC50 [2]: > 300 µM
Activity (Rattus norvegicus [4]): 43%
Activity (Rattus norvegicus [7]): 100%
